This note sets out measurements from patent US20240132431A1, “METHOD FOR ALKYLATING ACIDIC FUNCTIONAL GROUP” (Chugai Seiyaku Kabushiki Kaisha, priority 2021, published 2024).

This experiment addresses T1, Bcl-2 protein (Recombinant Human Bcl-2 Protein) (Homo sapiens, UniProt P10415).
T1 construct: purchased Novus NBP2-34889
Nature of the experiment: Binding evaluation of mixture library compounds to Bcl-2 using AS-MS (affinity selection mass spectrometry). To be noted: AS-MS, mixture of 1200 compounds, Bcl-2, ASMS Ratio(%)=(A−C)/B×100; for ASMS ratio (%) n = 1: replicate n = 1; for ASMS ratio (%) n = 2: replicate n = 2. The procedure: For one well of MICROPLATE, 96-well, PP, V-BOTTOM (Greiner bio-one, 651201), DMSO solutions of 12 mixtures (prepared to approximately 0.58 mM based on calculations from the average molecular weight of each mixture), in each of which 100 compounds are mixed, were each dispensed, and dispensed into a total of 12 wells, where the 12 mixtures are mixAI-B4J-01, mixAI-B1M-01, mixAI-B1K-01, mixAI-B10-01, mixAI-B1A-01, mixAI-B3A-01, mixAI-B21-01, mixAI-B2L-01, mixAI-B2N-01, mixAI-B2A-01, mixAI-B2Q-01, and mixAI-B2R-01 listed in [Table AI-03-B4J-01], [Table AI-03-B1M-01], [Table AI-03-B1K-01], [Table AI-03-B10-01], [Table AI-03-B1A-01], [Table AI-03-B3A-01], [Table AI-03-B2I-01], [Table AI-03-B2L-01], [Table AI-03-B2N-01], [Table AI-03-B2A-01], [Table AI-03-B2Q-01], and [AI-03-B2R-01] shown in Example 6. Using the LABCYTE ECHO® 555 Acoustic Dispensing System (BECKMAN COULTER), 70 nL was collected from each of the 12 wells into one arbitrary well to prepare a sample solution with 1200 compounds in the mixed state (the presence of 1152 compounds had already been identified when prepared in Example 6-5-3). (In the present specification, the mixture collected in this one well is referred to as one library.) Furthermore, a Bcl-2 protein (Novus, NBP2-34889, Recombinant Human Bcl-2 Protein, Lot E60145051) (19.2 μL) that had been prepared in advance to be 20.9 μM using a Tris-HCl buffer (25 mM Tris-HCl pH 7.4, 150 mM NaCl, 0.025% Tween-20, 1 mM DTT) was added to the well in which 1200 compounds (the presence of 1152 compounds had already been identified when prepared in Example 6-5-3) were dispensed (final compound concentration […], final Bcl-2 concentration 20 μM), and the mixture was incubated in the dark at 23° C. for 1 hour. Next, using the 96-well MacroSpin column, P-2 Material (Harvard, 74-5655) that had been swollen, conditioning of the 96-well MacroSpin column was performed three times by centrifugation with 200 μL of an assay buffer (25 mM Tris-HCl pH 7.4, 150 mM NaCl, 0.025% Tween-20, 1 mM DTT), 2000 XG, 4° C., 2 min. Subsequently, 20 μL of the sample after incubation was added to the 96-well MacroSpin column, P-2 Material, that had been conditioned, and SEC treatment was performed by centrifugation at 2000×G for 2 minutes. To the liquid passed from the SEC, 32 μL of a 1:1 mixed solution of acetonitrile and methanol (LC/MS grade, Fujifilm Wako Pure Chemical Corporation) was added, the mixture was centrifuged at 1800×G, 4° C., 5 min, and the supernatant was used as analysis sample ASMS (A), while a sample that had been prepared by the same operations at 1200 compounds/well and to which only the Tris-HCl buffer had been added without the Bcl-2 protein was incubated under the same conditions, no 96-well MacroSpin column treatment was performed, the same organic solvent was added, and the supernatant solution obtained by centrifugation was used as STD (B). Next, a sample that had been prepared by the same operations at 1200 compounds/well and to which only the Tris-HCl buffer had been added without the Bcl-2 protein was incubated under the same conditions, the same 96-well MacroSpin column treatment was performed, the same organic solvent was added, and the supernatant solution obtained by centrifugation was used as BK (C), and measured by reversed phase LC/MS.
Then, analysis of the 1200 compounds was carried out for samples A, B, and C with TraceFinder 5.1 (Thermo Fisher Scientific) and CHANCE Software (in-house), and the ASMS Ratio (%) was calculated according to the following calculation formula.
Calculation formula: ASMS Ratio(%)=(A−C)/B×100

T1 sequence (P10415 whole entry): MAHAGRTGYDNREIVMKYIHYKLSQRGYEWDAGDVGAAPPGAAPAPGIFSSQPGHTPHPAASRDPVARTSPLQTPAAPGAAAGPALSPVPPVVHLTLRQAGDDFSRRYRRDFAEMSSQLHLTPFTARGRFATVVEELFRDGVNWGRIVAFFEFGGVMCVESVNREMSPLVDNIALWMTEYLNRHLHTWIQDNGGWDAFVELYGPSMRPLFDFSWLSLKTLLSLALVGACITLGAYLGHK

Consider “6-[4-[[4-(5-Ethoxypyridin-3-yl)-3-methylphenyl]methyl]piperazin-1-yl]-N-propylpyridazine-3-carboxamide [B1M065-01]”, for which the “ASMS ratio (%) n = 1” value was 0.2% and the “ASMS ratio (%) n = 2” value was −6.4%.

For the molecule “6-[4-[[4-(5-Ethoxypyridin-3-yl)naphthalen-1-yl]methyl]piperazin-1-yl]-N-propylpyridazine-3-carboxamide [B1M047-01]”, the “ASMS ratio (%) n = 1” value is 1.1% and the “ASMS ratio (%) n = 2” value is reported as 0.3%.

With “6-[4-[[4-(5-Ethoxypyridin-3-yl)thiophen-2-yl]methyl]piperazin-1-yl]-N-propylpyridazine-3-carboxamide [B1M051-01]”, the “ASMS ratio (%) n = 1” value came out at 0.7% and the “ASMS ratio (%) n = 2” value is reported as 1.9%.

As for `CCOc1cccc(-c2csc(C(=O)N3CCN(c4ccc(C(=O)NCC56CC7CC(CC(C7)C5)C6)nn4)CC3)c2)c1` [B1A001-01, N-(1-Adamantylmethyl)-6-[4-[4-(3-ethoxyphenyl)thiophene-2-carbonyl]piperazin-1-yl]pyridazine-3-carboxamide], the “ASMS ratio (%) n = 1” value turned out to be 17.6% and the “ASMS ratio (%) n = 2” value was −0.7%.

In the case of `CCOc1cncc(-c2csc(C(=O)N3CCN(c4ccc(C(=O)NCC56CC7CC(CC(C7)C5)C6)nn4)CC3)c2)c1` [B1A002-01], the “ASMS ratio (%) n = 1” value stood at 0.0% and the “ASMS ratio (%) n = 2” value was 4.9%.

For `CCOc1cccc(-c2ccc(C(=O)N3CCN(c4ccc(C(=O)NCC56CC7CC(CC(C7)C5)C6)nn4)CC3)cc2C)c1` [B1A003-01, N-(1-Adamantylmethyl)-6-[4-[4-(3-ethoxyphenyl)-3-methylbenzoyl]piperazin-1-yl]pyridazine-3-carboxamide], the “ASMS ratio (%) n = 1” value was found to be 7.5% and the “ASMS ratio (%) n = 2” value turned out to be 5.8%.

For `CCOc1cncc(-c2ccc(C(=O)N3CCN(c4ccc(C(=O)NCC56CC7CC(CC(C7)C5)C6)nn4)CC3)cc2C)c1` [B1A004-01, N-(1-Adamantylmethyl)-6-[4-[4-(5-ethoxypyridin-3-yl)-3-methylbenzoyl]piperazin-1-yl]pyridazine-3-carboxamide], the “ASMS ratio (%) n = 1” value is −6.2% and the “ASMS ratio (%) n = 2” value was 2.6%.

As to `CCOc1cccc(-c2ccc(C(=O)N3CCN(c4ccc(C(=O)NCC56CC7CC(CC(C7)C5)C6)nn4)CC3)cc2F)c1` [B1A005-01, N-(1-Adamantylmethyl)-6-[4-[4-(3-ethoxyphenyl)-3-fluorobenzoyl]piperazin-1-yl]pyridazine-3-carboxamide], the “ASMS ratio (%) n = 1” value was 7.0% and the “ASMS ratio (%) n = 2” value is recorded as −10.7%.

`CCOc1cncc(-c2ccc(C(=O)N3CCN(c4ccc(C(=O)NCC56CC7CC(CC(C7)C5)C6)nn4)CC3)cc2F)c1` [B1A006-01, N-(1-Adamantylmethyl)-6-[4-[4-(5-ethoxypyridin-3-yl)-3-fluorobenzoyl]piperazin-1-yl]pyridazine-3-carboxamide]: the “ASMS ratio (%) n = 1” value turned out to be 2.4% and the “ASMS ratio (%) n = 2” value is 9.1%.

As to `CCOc1cccc(C#Cc2ccccc2C(=O)N2CCN(c3ccc(C(=O)NCC45CC6CC(CC(C6)C4)C5)nn3)CC2)c1` [B1A007-01, N-(1-Adamantylmethyl)-6-[4-[2-[2-(3-ethoxyphenyl)ethynyl]benzoyl]piperazin-1-yl]pyridazine-3-carboxamide], the “ASMS ratio (%) n = 1” value is listed as 0.0%.

On to `CCOc1cncc(C#Cc2ccccc2C(=O)N2CCN(c3ccc(C(=O)NCC45CC6CC(CC(C6)C4)C5)nn3)CC2)c1` [B1A008-01, N-(1-Adamantylmethyl)-6-[4-[2-[2-(5-ethoxypyridin-3-yl)ethynyl]benzoyl]piperazin-1-yl]pyridazine-3-carboxamide], for which the “ASMS ratio (%) n = 1” value was 3.0% and the “ASMS ratio (%) n = 2” value was found to be 0.0%.

As for `CCOc1cccc(C#Cc2cncc(C(=O)N3CCN(c4ccc(C(=O)NCC56CC7CC(CC(C7)C5)C6)nn4)CC3)c2)c1` [B1A009-01, N-(1-Adamantylmethyl)-6-[4-[5-[2-(3-ethoxyphenyl)ethynyl]pyridine-3-carbonyl]piperazin-1-yl]pyridazine-3-carboxamide], the “ASMS ratio (%) n = 1” value is 3.0% and the “ASMS ratio (%) n = 2” value came out at 0.0%.

As for `CCOc1cncc(C#Cc2cncc(C(=O)N3CCN(c4ccc(C(=O)NCC56CC7CC(CC(C7)C5)C6)nn4)CC3)c2)c1` [B1A010-01, N-(1-Adamantylmethyl)-6-[4-[5-[2-(5-ethoxypyridin-3-yl)ethynyl]pyridine-3-carbonyl]piperazin-1-yl]pyridazine-3-carboxamide], the “ASMS ratio (%) n = 2” value is on record as 0.0%.

With `CCOc1cccc(-c2ccccc2CCC(=O)N2CCN(c3ccc(C(=O)NCC45CC6CC(CC(C6)C4)C5)nn3)CC2)c1` [B1A011-01, N-(1-Adamantylmethyl)-6-[4-[3-[2-(3-ethoxyphenyl)phenyl]propanoyl]piperazin-1-yl]pyridazine-3-carboxamide], the “ASMS ratio (%) n = 1” value is on record as 11.2% and the “ASMS ratio (%) n = 2” value is −13.2%.

On to `CCOc1cncc(-c2ccccc2CCC(=O)N2CCN(c3ccc(C(=O)NCC45CC6CC(CC(C6)C4)C5)nn3)CC2)c1` [B1A012-01, N-(1-Adamantylmethyl)-6-[4-[3-[2-(5-ethoxypyridin-3-yl)phenyl]propanoyl]piperazin-1-yl]pyridazine-3-carboxamide], for which the “ASMS ratio (%) n = 1” value is recorded as 0.0% and the “ASMS ratio (%) n = 2” value is on record as 0.0%.

For `CCOc1cccc(-c2ccc(C(=O)N3CCN(c4ccc(C(=O)NCC56CC7CC(CC(C7)C5)C6)nn4)CC3)c3ccccc23)c1` [B1A013-01, N-(1-Adamantylmethyl)-6-[4-[4-(3-ethoxyphenyl)naphthalene-1-carbonyl]piperazin-1-yl]pyridazine-3-carboxamide], the “ASMS ratio (%) n = 1” value is recorded as −1.7% and the “ASMS ratio (%) n = 2” value was determined as 2.4%.

Consider `CCOc1cncc(-c2ccc(C(=O)N3CCN(c4ccc(C(=O)NCC56CC7CC(CC(C7)C5)C6)nn4)CC3)c3ccccc23)c1` [B1A014-01, N-(1-Adamantylmethyl)-6-[4-[4-(5-ethoxypyridin-3-yl)naphthalene-1-carbonyl]piperazin-1-yl]pyridazine-3-carboxamide], for which the “ASMS ratio (%) n = 1” value amounted to 8.1% and the “ASMS ratio (%) n = 2” value is reported as 0.0%.

Consider `CCOc1cccc(-c2cc(C(=O)N3CCN(c4ccc(C(=O)NCC56CC7CC(CC(C7)C5)C6)nn4)CC3)cc(C(C)(C)C)c2)c1` [B1A015-01, N-(1-Adamantylmethyl)-6-[4-[3-tert-butyl-5-(3-ethoxyphenyl)benzoyl]piperazin-1-yl]pyridazine-3-carboxamide], for which the “ASMS ratio (%) n = 1” value is listed as −0.9% and the “ASMS ratio (%) n = 2” value is on record as −20.6%.

Take `CCOc1cncc(-c2cc(C(=O)N3CCN(c4ccc(C(=O)NCC56CC7CC(CC(C7)C5)C6)nn4)CC3)cc(C(C)(C)C)c2)c1` [B1A016-01, N-(1-Adamantylmethyl)-6-[4-[3-tert-butyl-5-(5-ethoxypyridin-3-yl)benzoyl]piperazin-1-yl]pyridazine-3-carboxamide]: the “ASMS ratio (%) n = 1” value is 12.1% and the “ASMS ratio (%) n = 2” value was −4.6%.

In the case of `CCOc1cccc(-c2cc(C(=O)N3CCN(c4ccc(C(=O)NCC56CC7CC(CC(C7)C5)C6)nn4)CC3)cc(C(F)(F)F)c2)c1` [B1A017-01, N-(1-Adamantylmethyl)-6-[4-[3-(3-ethoxyphenyl)-5-(trifluoromethyl)benzoyl]piperazin-1-yl]pyridazine-3-carboxamide], the “ASMS ratio (%) n = 1” value came out at 5.4% and the “ASMS ratio (%) n = 2” value was 5.4%.
